What all share (format): in vivo
Assay [1] has as its system ryegrass, Italian (Italian ryegrass, Lolium multiflorum). Nature of the assay: Test A preemergence. The note with it: Lolium multiflorum, pre-emergence, 240 h. The gist of the method:
(§1)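 Preemergence directed soil spray on seeded pots, or postemergence application to plants 2–10 cm, one- to two-leaf. Solvent mixture non-phytotoxic, with surfactant. Scored ~10 d later, visually, 0–100 vs untreated.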

Assay [2] has as its system Kochia (Kochia scoparia). The experiment in a line: Test A preemergence. As to conditions: Bassia scoparia, pre-emergence, 240 h. The gist of the method:
as §1

For assay [3], the system named is barnyardgrass (Echinochloa crus-galli). Nature of the assay: Test A preemergence. The note with it: Echinochloa crus-galli, pre-emergence, 240 h. The essentials:
as §1

For assay [4], the system named is ragweed (common ragweed, Ambrosia elatior). The experiment in a line: Test A preemergence. As to conditions: Ambrosia artemisiifolia, pre-emergence, 240 h. The essentials:
as §1

Assay [5] relates to pigweed (Amaranthus retroflexus). Nature of the assay: Test A preemergence. As to conditions: Amaranthus retroflexus, pre-emergence, 240 h.
For assay [6], the system named is giant foxtail (Setaria faberii). Nature of the assay: Test A preemergence. The note with it: Setaria faberi, pre-emergence, 240 h. The essentials:
as §1

The test system of assay [7] is ryegrass, Italian (Italian ryegrass, Lolium multiflorum). Nature of the assay: Test A postemergence. The note with it: Lolium multiflorum, post-emergence, 240 h, 125 g ai/ha, postemergence, visual injury rating after approximately 10 d; read-out: Ryegrass, Italian plant response rating (0 to 100 scale, 0 no effect, 100 complete control). The gist of the method: as §1

Assay [8] concerns Kochia (Kochia scoparia). Nature of the assay: Test A postemergence. As to conditions: Bassia scoparia, post-emergence, 240 h, 125 g ai/ha, postemergence, visual injury rating after approximately 10 d; read-out: Kochia plant response rating (0 to 100 scale, 0 no effect, 100 complete control). The gist of the method:
as §1

The subject of the next assay is corn (Zea mays). Nature of the assay: Test A postemergence. As to conditions: Zea mays, post-emergence, 240 h, 125 g ai/ha, postemergence, visual injury rating after approximately 10 d; read-out: Corn plant response rating (0 to 100 scale, 0 no effect, 100 complete control). The essentials: as §1
Assay [9] deals with Galium (catchweed bedstraw, Galium aparine). Nature of the assay: Test A postemergence. The note with it: Galium, post-emergence, 240 h, 125 g ai/ha, postemergence, visual injury rating after approximately 10 d; read-out: Galium plant response rating (0 to 100 scale, 0 no effect, 100 complete control). The essentials: as §1
Assay [10] deals with barnyardgrass (Echinochloa crus-galli). The experiment in a line: Test A postemergence. As to conditions: Echinochloa crus-galli, post-emergence, 240 h, 125 g ai/ha, postemergence, visual injury rating after approximately 10 d; read-out: Barnyardgrass plant response rating (0 to 100 scale, 0 no effect, 100 complete control). The essentials: as §1
Assay [11] concerns wheat (Triticum aestivum). The experiment in a line: Test A postemergence. The note with it: Triticum aestivum, post-emergence, 240 h, 125 g ai/ha, postemergence, visual injury rating after approximately 10 d; read-out: Wheat plant response rating (0 to 100 scale, 0 no effect, 100 complete control). The gist of the method:
as §1

Assay [12] deals with ragweed (common ragweed, Ambrosia elatior). The experiment in a line: Test A postemergence. The note with it: Ambrosia artemisiifolia, post-emergence, 240 h, 125 g ai/ha, postemergence, visual injury rating after approximately 10 d; read-out: Ragweed plant response rating (0 to 100 scale, 0 no effect, 100 complete control). The essentials:
as §1

Assay [13] relates to pigweed (Amaranthus retroflexus). Nature of the assay: Test A postemergence. As to conditions: Amaranthus retroflexus, post-emergence, 240 h, 125 g ai/ha, postemergence, visual injury rating after approximately 10 d; read-out: Pigweed plant response rating (0 to 100 scale, 0 no effect, 100 complete control). The essentials: as §1
Assay [14] concerns giant foxtail (Setaria faberii). Nature of the assay: Test A postemergence. The note with it: Setaria faberi, post-emergence, 240 h, 125 g ai/ha, postemergence, visual injury rating after approximately 10 d; read-out: Foxtail, Giant plant response rating (0 to 100 scale, 0 no effect, 100 complete control). The essentials:
as §1

As for `Cc1cc(F)cc([C@H]2CNC(=O)[C@@H]2C(=O)Nc2ccc(F)c(F)c2F)c1` [Compound 848], the pest or weed control at 125 g/ha in assay [1] (125 g ai/ha, preemergence, 0 to 100 scale where 0 is no effect and 100 is complete control, read-out: Ryegrass, Italian plant response rating) turned out to be 40%; in the assay with Kochia (Kochia scoparia) [2] (125 g ai/ha, preemergence, 0 to 100 scale where 0 is no effect and 100 is complete control, read-out: Kochia plant response rating) it was 40%; in [3] (125 g ai/ha, preemergence, 0 to 100 scale where 0 is no effect and 100 is complete control, read-out: Barnyardgrass plant response rating) it was 90%; in assay [4] (125 g ai/ha, preemergence, 0 to 100 scale where 0 is no effect and 100 is complete control, read-out: Ragweed plant response rating) it was 0%; in [5] (125 g ai/ha, preemergence, 0 to 100 scale where 0 is no effect and 100 is complete control, read-out: Pigweed plant response rating), 40%; in assay [6] (125 g ai/ha, preemergence, 0 to 100 scale where 0 is no effect and 100 is complete control, read-out: Foxtail, Giant plant response rating), 90%. In addition, the pest or weed control at 125 g/ha in [7] is 0%; in the assay with Kochia (Kochia scoparia) [8], 0%; in [9], 30%; in assay [10] it was 90%; in [12], 0%; in assay [13], 0%. Also, in [14], the pest or weed control at 125 g/ha is 70%. Also, the pest or weed control at 500 g/ha was found to be 50% in assay [1] (500 g ai/ha, Preemergence, visual injury vs untreated controls after approximately 10 d, read-out: Ryegrass, Italian plant response rating (0 to 100 scale where 0 is no effect and 100 is complete control)); 70% with Kochia (Kochia scoparia) [2] (500 g ai/ha, Preemergence, visual injury vs untreated controls after approximately 10 d, read-out: Kochia plant response rating (0 to 100 scale where 0 is no effect and 100 is complete control)); 90% in assay [3] (500 g ai/ha, Preemergence, visual injury vs untreated controls after approximately 10 d, read-out: Barnyardgrass plant response rating (0 to 100 scale where 0 is no effect and 100 is complete control)); 30% in assay [4] (500 g ai/ha, Preemergence, visual injury vs untreated controls after approximately 10 d, read-out: Ragweed plant response rating (0 to 100 scale where 0 is no effect and 100 is complete control)); 50% in assay [5] (500 g ai/ha, Preemergence, visual injury vs untreated controls after approximately 10 d, read-out: Pigweed plant response rating (0 to 100 scale where 0 is no effect and 100 is complete control)); 90% in [6] (500 g ai/ha, Preemergence, visual injury vs untreated controls after approximately 10 d, read-out: Foxtail, Giant plant response rating (0 to 100 scale where 0 is no effect and 100 is complete control)). Moreover, the plant injury at 125 g/ha (in the assay on corn (Zea mays); in assay [11]) was 0% throughout.

The values are drawn from patent US12077503B2, “Substituted cyclic amides and their use as herbicides” (FMC CORPORATION, priority 2015, dated 2024).
